Test results: patent publication US6683095B2, “CDK inhibitors having 3-hydroxychromen-4-one structure” (LG Life Sciences Ltd., priority 2000, dated 2004)

Columns and labels:
[1] = biological target: T1, CDK2/cyclin A (Homo sapiens, UniProt P24941); assay: Inhibitory activity against CDK2 (CDK2/cyclin A kinase assay, GST-Rb substrate, 32P-ATP); format: biochemical; conditions: 100 μM ATP, 30° C., 30 minutes
T1 construct: His; made in house; host or cells: insect cell (baculovirus co-infection)
Procedure: The inhibitory activity against CDK2 was measured by referring to Kitagawa, M. et al., Oncogene 9; 2549, 1994 and that against CDK4 was measured by referring to Carlson, B. A. et al., Cancer Research 56; 2473, 1996.
The part of amino acid positions 780 to 928 of C-terminus of human Rb protein was isolated, N-terminus thereof was labelled with GST protein, large amount thereof was expressed in bacteria and purified to be used as the substrate for the enzyme.
(§1) The activities of CDK2/cyclin A and CDK4/cyclin D1 were determined as follows. About 100 ng of enzyme was reacted in a total 100 μl of 20 mM Tris(pH 8.0), 100 mM NaCl, 10 mM MgCl2 buffer solution containing 20 μg of GST-Rb protein, 100 μM of ATP and 5 μCi of p^32-γ-ATP at 30° C. for 30 minutes. Then, EDTA was added to a concentration of 20 mM to stop the enzyme reaction. Subsequently, 30 μl of 50% glutathione bead (purchased from Pharmacia) was added to attach GST-Rb to the bead, which was washed three times with 20 mM Tris(pH 8.0), 100 mM NaCl, 10 mM EDTA solution, and then scintillation counting was carried out. To analyze the inhibitory activity of the compound, the inhibitor having a proper concentration was added to the enzyme reaction solution, and then the enzyme activity was measured according to the above method.
The inhibitory activity against CDK2 and CDK4 of the compound of formula (1) according to the present invention was represented as IC50 value (see the following Table 1).

[2] = Acute oral toxicity test; conditions: mouse, in vivo; oral administration, ICR male, observed 7 days, Litchfield-Wilcoxon method
Procedure: To determine the acute oral toxicities of the test compounds, solutions containing a compound in different concentrations from each other were administered orally to ICR male with a dose of 10 ml/kg body weight. After oral administration, lethality and symptoms for 7 days were observed, and LD50 (mg/kg) was calculated according to Litchfield-Wilcoxon method.

[3] = biological target: T2, CDK4/cyclin D1 (Homo sapiens, UniProt P11802); assay: Inhibitory activity against CDK4 (CDK4/cyclin D1 kinase assay, GST-Rb substrate, 32P-ATP); format: biochemical; conditions: 100 μM ATP, 30° C., 30 minutes
T2 construct: GST; made in house; host or cells: insect cell
T2 sequence (P11802 whole entry): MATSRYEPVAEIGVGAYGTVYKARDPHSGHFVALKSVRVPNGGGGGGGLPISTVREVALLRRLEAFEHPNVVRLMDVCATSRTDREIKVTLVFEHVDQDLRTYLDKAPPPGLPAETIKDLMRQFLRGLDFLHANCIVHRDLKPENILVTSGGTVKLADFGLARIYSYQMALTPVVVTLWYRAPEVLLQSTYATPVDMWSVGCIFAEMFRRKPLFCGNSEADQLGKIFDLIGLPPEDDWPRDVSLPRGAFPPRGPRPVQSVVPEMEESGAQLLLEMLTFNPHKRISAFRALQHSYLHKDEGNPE
T2 sequence (P24385 whole entry partner): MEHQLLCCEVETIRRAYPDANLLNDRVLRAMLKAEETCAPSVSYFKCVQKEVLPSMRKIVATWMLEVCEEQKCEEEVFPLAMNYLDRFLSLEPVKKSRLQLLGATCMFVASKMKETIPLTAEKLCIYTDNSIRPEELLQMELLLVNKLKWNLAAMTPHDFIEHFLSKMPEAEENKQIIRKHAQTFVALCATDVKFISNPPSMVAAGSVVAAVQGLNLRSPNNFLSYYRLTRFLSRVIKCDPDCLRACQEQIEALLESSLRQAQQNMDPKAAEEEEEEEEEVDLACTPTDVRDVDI
Procedure: as §1

Compound | IC50 [1] [nM] | LD50 at 7 days [2] [mg/kg] | IC50 [3] [nM]
CNc1cc(N2CCCS2(=O)=O)c2oc(-c3ccc(O)c(Cl)c3)c(O)c(=O)c2c1 [Compound 37, 2-[2-(3-chloro-4-hydroxyphenyl)-6-(methylamino)-3-hydroxy-4-oxo-4H-chromen-8-yl]-1λ^6-isothiazolidin-1,1-dione] | 200 | > 3000 | 180
CN(C)c1cc(N2CCCS2(=O)=O)c2oc(-c3ccc(O)c(Cl)c3)c(O)c(=O)c2c1 [Compound 36, 2-[2-(3-chloro-4-hydroxyphenyl)-6-(dimethylamino)-3-hydroxy-4-oxo-4H-chromen-8-yl]-1λ^6-isothiazolidin-1,1-dione] | 500 | > 3000 | 600
Cc1cc(C2CCN(C)CC2)c2oc(-c3ccc(O)c(Cl)c3)c(O)c(=O)c2c1 [Compound 38, 2-(3-chloro-4-hydroxyphenyl)-3-hydroxy-6-methyl-8-(1-methyl-4-piperidinyl)-4H-chromen-4-one] | 500 | > 3000 | 120
Cc1cc(N2CCCS2(=O)=O)c2oc(-c3ccc(O)cc3)c(O)c(=O)c2c1 [Compound 15, 2-[3-hydroxy-2-(4-hydroxyphenyl)-6-methyl-4-oxo-4H-chromen-8-yl]-1λ^6-isothiazolidin-1,1-dione] | 250 | > 3000 | 550
Cc1cc(N2CCCS2(=O)=O)c2oc(-c3ccc(O)c(Cl)c3)c(O)c(=O)c2c1 [Compound 17, 2-[2-(3-chloro-4-hydroxyphenyl)-3-hydroxy-6-methyl-4-oxo-4H-chromen-8-yl]-1λ^6-isothiazolidin-1,1-dione] | 185 | > 3000 | 195
O=c1c(O)c(-c2ccc(O)cc2)oc2c(N3CCCS3(=O)=O)cc(Nc3ccccc3)cc12 [Compound 31, 2-[6-anilino-3-hydroxy-2-(4-hydroxyphenyl)-4-oxo-4H-chromen-8-yl]-1λ^6-isothiazolidin-1,1-dione] | 1400 |  | 3000
Cc1ccc2oc(-c3ccc(O)c(O)c3Br)c(O)c(=O)c2c1 [Compound 14, 2-(2-bromo-3,4-dihydroxyphenyl)-3-hydroxy-6-methyl-4H-chromen-4-one] | 500000 |  | 11000
O=c1c(O)c(-c2ccc(O)cc2)oc2c(N3CCCS3(=O)=O)cc(NC3CCNCC3)cc12 [Compound 29, 2-[3-hydroxy-2-(4-hydroxyphenyl)-4-oxo-6-(4-piperidinylamino)-4H-chromen-8-yl]-1λ^6-isothiazolidin-1,1-dione] | 1800 |  | 1700
Cc1cc(N2CCCS2(=O)=O)c2oc(-c3ccc(O)c(Br)c3)c(O)c(=O)c2c1 [Compound 18, 2-[2-(3-bromo-4-hydroxyphenyl)-3-hydroxy-6-methyl-4-oxo-4H-chromen-8-yl]-1λ^6-isothiazolidin-1,1-dione] | 75 |  | 210
Cc1cc(-c2cc[n+](C)cc2)c2oc(-c3ccc(O)c(Cl)c3)c(O)c(=O)c2c1 [Compound 40, 4-[2-(3-chloro-4-hydroxyphenyl)-3-hydroxy-6-methyl-4-oxo-4H-chromen-8-yl]-1-methylpyridinium bromide] | 700 | > 3000 | 310
Cc1cc(C2CCN(C)CC2)c2oc(-c3ccc(O)cc3)c(O)c(=O)c2c1 [Compound 41, 2-(4-hydroxyphenyl)-3-hydroxy-6-methyl-8-(1-methyl-4-piperidinyl)-4H-chromen-4-one] | 560 |  | 150
CCN(CC)c1cc(N2CCCS2(=O)=O)c2oc(-c3ccc(O)cc3)c(O)c(=O)c2c1 [Compound 27, 2-[6-(diethylamino)-3-hydroxy-2-(4-hydroxyphenyl)-4-oxo-4H-chromen-8-yl]-1λ^6-isothiazolidin-1,1-dione] | 9000 |  | 7100
Cc1cc([N+](=O)[O-])c2oc(-c3ccc(O)c([N+](=O)[O-])c3)c(O)c(=O)c2c1 [Compound 2, 2-(4-hydroxy-3-nitrophenyl)-3-hydroxy-6-methyl-8-nitro-4H-chromen-4-one] | 4500 |  | 7700
